molecular target: Pseudomonas aeruginosa LpxC enzyme (Pseudomonas aeruginosa (strain ATCC 15692 / DSM 22644 / CIP 104116 / JCM 14847 / LMG 12228 / 1C / PRS 101 / PAO1), UniProt P47205); test: biochemical; type: biochemical; conditions: class symbols A/B/C by IC50; Table 3; read-out: Enzyme inhibitory activity (inhibitory activity on Pseudomonas aeruginosa LpxC enzyme)

IC50	Structure (SMILES)
< 10 nM	CNC(=O)C(C(=O)NO)N(C)C(=O)c1ccc(-c2ccc(-c3ccc(CO)o3)cc2)cc1 (centres unmarked) [Compound 499, N-hydroxy-2-[({4′-[5-(hydroxymethyl)furan-2-yl]biphenyl-4-yl}carbonyl)(methyl)amino]-N′-methylpropanediamide]
< 10 nM	CCOC1CN(Cc2ccc(C#Cc3ccc(C(=O)N(C)C(C(=O)NC)C(=O)NO)cc3)cc2Cl)C1 (centres unmarked) [Compound 579, 2-[{[4-({3-chloro-4-[(3-ethoxyazetidin-1-yl)methyl]phenyl}ethynyl)phenyl]carbonyl}(methyl)amino]-N-hydroxy-N′-methylpropanediamide]
< 10 nM	CCOC1CN(Cc2ccc(C#Cc3ccc(C(=O)N(C)C(C(=O)NC)C(=O)NO)cc3)c(F)c2)C1 (centres unmarked) [Compound 564, 2-[{[4-({4-[(3-ethoxyazetidin-1-yl)methyl]-2-fluorophenyl}ethynyl)phenyl]carbonyl}(methyl)amino]-N-hydroxy-N′-methylpropanediamide]
< 10 nM	CNC(=O)[C@@](C)(C(=O)NO)N(C)C(=O)c1ccc(C#Cc2coc(C)n2)cc1 [Compound 575, (2S)-N-hydroxy-N′,2-dimethyl-2-[methyl({4-[(2-methyl-1,3-oxazol-4-yl)ethynyl]phenyl}carbonyl)amino]propanediamide]

same assay, conditions: inhibitory activity on Pseudomonas aeruginosa LpxC enzyme, class symbols A/B/C; read-out: Enzyme inhibitory activity

Structure (SMILES)	IC50
O=C(NC(C(=O)NO)C(=O)NCc1ccccc1)c1ccc(-c2ccc(OCCO)cc2)cc1 (centres unmarked) [Compound 120, N-benzyl-N′-hydroxy-2-({[4′-(2-hydroxyethoxy)biphenyl-4-yl]carbonyl}amino)propanediamide]	< 10 nM
CSCCNC(=O)C(NC(=O)c1ccc(-c2ccc(OCCO)cc2)cc1)C(=O)NO (centres unmarked) [Compound 132, N-hydroxy-2-({[4′-(2-hydroxyethoxy)biphenyl-4-yl]carbonyl}amino)-N′-[2-(methylsulfanyl)ethyl]propanediamide]	< 10 nM
CNC(=O)C(C(=O)NO)N(C)C(=O)c1ccc(-c2ccccc2)cc1O (centres unmarked) [Compound 24, N-hydroxy-2-{[(3-hydroxybiphenyl-4-yl)carbonyl](methyl)amino}-N′-methylpropanediamide]	> 100 nM
CNC(=O)[C@](C)(C(=O)NO)N(C)C(=O)c1ccc(-c2ccccc2)cc1 [Compound 343, (2R)-2-[(biphenyl-4-ylcarbonyl)(methyl)amino]-N-hydroxy-N′,2-dimethylpropanediamide]	> 100 nM
CNC(=O)C(C(=O)NO)N(C)C(=O)c1ccc(-c2ccc(/C=N/OC)cc2)cc1 (centres unmarked) [Compound 260, N-hydroxy-2-[({4′-[(E)-(methoxyimino)methyl]biphenyl-4-yl}carbonyl)(methyl)amino]-N′-methylpropanediamide]	< 10 nM
CNC(=O)C(C(=O)NO)N(C)C(=O)c1ccc(C#Cc2ccc(CNCc3ncco3)cc2)cc1 (centres unmarked) [Compound 485, N-hydroxy-N′-methyl-2-[methyl({4-[(4-{[(1,3-oxazol-2-ylmethyl)amino]methyl}phenyl)ethynyl]phenyl}carbonyl)amino]propanediamide]	< 10 nM
CCN(C(=O)c1ccc(-c2ccc(NC)cc2)cc1)C(C(=O)NC)C(=O)NO (centres unmarked) [Compound 235, 2-(ethyl {[4′-(methylamino)biphenyl-4-yl]carbonyl}amino)-N-hydroxy-N′-methylpropanediamide]	< 10 nM
CCCCOc1ccc(C(=O)N(C)C(C(=O)NC)C(=O)NO)cc1 (centres unmarked) [Compound 35, 2-[(4-butoxybenzoyl)(methyl)amino]-N-hydroxy-N′-methylpropanediamide]	10 to 100 nM
CNC(=O)C(C(=O)NO)N(C)C(=O)c1ccc(-c2ccc(OCc3ccc(-c4nnn[nH]4)cc3)cc2)cc1 (centres unmarked) [Compound 93, N-hydroxy-N′-methyl-2-{methyl[(4′-{[4-(1H-tetrazol-5-yl)benzyl]oxy}biphenyl-4-yl)carbonyl]amino}propanediamide]	10 to 100 nM
CNC(=O)[C@@](C)(C(=O)NO)N(C)C(=O)c1ccc(-c2ccc(OCCN3CCOCC3)cc2)cc1 [Compound 437, (2S)-N-hydroxy-N′,2-dimethyl-2-[methyl({4′-[2-(morpholin-4-yl)ethoxy]biphenyl-4-yl}carbonyl)amino]propanediamide]	< 10 nM
CNC(=O)C(C(=O)NO)N(C)C(=O)c1ccc(-c2ccc(OCCOC)cc2)cc1 (centres unmarked) [Compound 191, N-hydroxy-2-[{[4′-(2-methoxyethoxy)biphenyl-4-yl]carbonyl}(methyl)amino]-N′-methylpropanediamide]	< 10 nM
CNC(=O)C(C(=O)NO)N(C)C(=O)c1ccc(-c2ccc(NCC3CC3)cc2)cc1 (centres unmarked) [Compound 79, 2-[({4′-[(cyclopropylmethyl)amino]biphenyl-4-yl}carbonyl)(methyl)amino]-N-hydroxy-N′-methylpropanediamide]	< 10 nM
CNC(=O)C(C(=O)NO)N(C)C(=O)c1ccc(-c2ccc3c(c2)cc(CN2CCOCC2)n3C)cc1 (centres unmarked) [Compound 46, N-hydroxy-N′-methyl-2-(methyl {4-[1-methyl-2-(morpholin-4-ylmethyl)-1H-indol-5-yl]benzoyl}amino)propanediamide]	10 to 100 nM
CCCS(=O)(=O)Nc1ccc(-c2ccc(C(=O)N(C)C(C(=O)NC)C(=O)NO)cc2)cc1 (centres unmarked) [Compound 78, N-hydroxy-N′-methyl-2-[methyl({4′-[(propylsulfonyl)amino]biphenyl-4-yl}carbonyl)amino]propanediamide]	10 to 100 nM

The next lines start with the values.

IC50	Structure (SMILES)
< 10 nM	CCCNc1ccc(-c2ccc(C(=O)N(C)C(C(=O)NC)C(=O)NO)cc2)cc1F (centres unmarked) [Compound 231, 2-[{[3′-fluoro-4′-(propylamino)biphenyl-4-yl]carbonyl}(methyl)amino]-N-hydroxy-N′-methylpropanediamide]
< 10 nM	CNC(=O)C(C(=O)NO)N(C)C(=O)c1ccc(-c2ccc3[nH]ccc3c2)cc1 (centres unmarked) [Compound 201, N-hydroxy-2-{[4-(1H-indol-5-yl)benzoyl](methyl)amino}-N′-methylpropanediamide]
< 10 nM	CCNc1ccc(-c2ccc(C(=O)N(C)C(C(=O)NC)C(=O)NO)cc2)cc1 (centres unmarked) [Compound 32, 2-[{[4′-(ethylamino)biphenyl-4-yl]carbonyl}(methyl)amino]-N-hydroxy-N′-methylpropanediamide]
10 to 100 nM	CNC(=O)C(C(=O)NO)N(C)C(=O)c1ccc(-c2ccc(OC)c(OC)c2)cc1 (centres unmarked) [Compound 55, 2-{[(3′,4′-dimethoxybiphenyl-4-yl)carbonyl](methyl)amino}-N-hydroxy-N′-methylpropanediamide]
10 to 100 nM	CNC(=O)C(C(=O)NO)N(C)C(=O)c1ccc(-c2ccc3c(c2)ncn3C)cc1 (centres unmarked) [Compound 281, N-hydroxy-N′-methyl-2-{methyl[4-(1-methyl-1H-benzimidazol-5-yl)benzoyl]amino}propanediamide]
< 10 nM	CNC(=O)C(C(=O)NO)N(C)C(=O)c1ccc(-c2ccc3[nH]c(C)cc3c2)cc1 (centres unmarked) [Compound 203, N-hydroxy-N′-methyl-2-{methyl[4-(2-methyl-1H-indol-5-yl)benzoyl]amino}propanediamide]
< 10 nM	CCCc1ccc(-c2ccc(C(=O)N(C)C(C(=O)NC)C(=O)NO)cc2)cc1 (centres unmarked) [Compound 182, N-hydroxy-N′-methyl-2-{methyl[(4′-propylbiphenyl-4-yl)carbonyl]amino}propanediamide]
10 to 100 nM	CNC(=O)C(C(=O)NO)N(C)C(=O)c1ccc(-c2c(F)cccc2F)cc1 (centres unmarked) [Compound 233, 2-{[(2′,6′-difluorobiphenyl-4-yl)carbonyl](methyl)amino}-N-hydroxy-N′-methylpropanediamide]

Reference: patent US9073821B2, “Hydroxamic acid derivative” (priority 2010, dated 2015)
